Data on 1 compound can be found in patent US20050004216A1, “Treating asthma, chronic obstructive pulmonary disease and/or other respiratory difficulties” (priority 2001, published 2005).

The subject of test [1] is asthma, chronic obstructive pulmonary disease and/or other respiratory difficulties. Kind of test: Trial examples: oral capsules in patients with asthma and/or chronic obstructive pulmonary disease. It counts as in vivo, human. To be noted: trials with a variety of patients; dosage forms of cetyl myristate alone. The text has this:
Examples of use follows. […] That mixture comprises by weight 95% cetyl myristate and 5% cetyl palmitate by weight manufactured by the process as disclosed in NZ Patent Specification No. 332959. In addition added excipients were present in the admixture and then encapsulated in the non gelatin two part capsule case.

The conditions of test [2]: laboratory experiments; reference to website www.gcinutrients.com; cited from earlier work.

Each structure is given as a SMILES string.

In the case of `CCCCCCCCCCCCCCCCOC(=O)CCCCCCCCCCCCC` [cetyl myristate], the “relief from the symptoms of asthma, chronic obstructive pulmonary disease and/or other respiratory difficulties” value in test [1] is reported as “favourable responses”. Besides, in test [2], the anti-arthritic activity entry is reported as “negligible”.
